Test results: patent US10837957B2, “In vitro model for pathological or physiologic conditions” (HemoShear, LLC, priority 2012, dated 2020)

What was measured:
[1] = tested on: endothelial cells and smooth muscle cells; experiment: oxLDL in hemodynamic environment: gene array, gene, protein and cytokine expression in co-culture; type: cell-based; details: for number of genes regulated as compared to nLDL: atheroprone, 50 μg/ml oxLDL vs 50 μg/ml nLDL
Procedure: Following 16-24 hours of shear stress preconditioning with atheroprotective or atheroprone hemodynamic forces, oxLDL was added to upper volume (containing the endothelial cells) at a concentration of 10-50 μg/ml (FIG. 5). In devices not receiving oxLDL, nLDL was added to the upper volume at the same concentration and used as a vehicle control. This concentration of oxLDL is similar to plasma concentrations of oxLDL observed in patients with cardiovascular disease. Shear stress application was continued for an additional 24 hours in the presence of oxLDL.
(§1) Five different donor pairs were used to analyze the oxLDL (50 μg/ml) response compared to nLDL (50 μg/ml) within the atheroprone hemodynamic environment in endothelial cells and smooth muscle cells. […] Significant genes were considered using an FDR of 0.01. Gene expression results are reported as the relative expression of the gene as compared to the expression of β-2 microglobulin (B2M). Protein expression results are reported as the relative expression of the protein as compared to the expression of actin. Activity of NFκB was assessed using an adenovirus NFκB-luciferase (Ad-NFKB-luc) reporter infected in ECs and SMCs.

endothelial cells [2] = experiment: oxLDL and TNFα in hemodynamic environment: RT-PCR gene expression; type: cell-based; details: atheroprone
Procedure: To emulate more inflammatory stages of atherosclerosis, it is desirable to combine multiple circulating factors to better emulate the complexity found within human blood vessels. […] The media in the upper volume was then exchanged for media containing 0.05 ng/ml TNFα and 50 μg/ml of oxLDL. Media containing only 50 μg/ml of nLDL was used as a control.
Following 24 hours of shear stress preconditioning with atheroprotective or atheroprone hemodynamic forces, 50 μg/ml of oxLDL and 0.05 ng/ml of TNFα were added to upper volume (containing the endothelial cells). This concentration of TNFα is similar to plasma concentrations of TNFα observed in patients with cardiovascular disease. In devices not receiving oxLDL, nLDL was added to the upper volume at the same concentration and used as a vehicle control. Shear stress application was continued for an additional 24 hours in the presence of TNF-a and oxLDL (see FIG. 5). Gene expression analysis was performed using RT-PCR.

NFκB = experiment: Adenovirus NFκB-luciferase reporter in ECs and SMCs; type: cell-based
Procedure: as §1

endothelial cells [3] = experiment: Static monoculture thrombosis assay (A488-fibrin deposition by confocal microscopy); type: cell-based, human; details: static conditions; for fibrin deposition, mean fluorescence intensity: 4 hours
Procedure: (§2) Human endothelial cells were co-cultured with or without smooth muscle cells in the presence or absence of human-derived, region-specific hemodynamics. Endothelial cells were exposed to TNFα at various concentrations and incubated in human, platelet-free plasma supplemented by ALEXA FLUOR 488 (A488, a fluorescent dye)-labeled fibrinogen. Conversion of A488-fibrinogen to A488-fibrin and deposition on the endothelium was quantified by confocal microscopy.
For static monocultures of endothelial cells, endothelial cells were plated at 100,000 cells/cm^2 on coverslips and allowed to adhere for 24 hours. After 24 hours, media was exchanged with media containing 0 ng/ml, 1 ng/ml, 10 ng/ml, or 20 ng/ml TNFα. Cells were incubated for 4 hours at 37° C. Following incubation, media was removed and cells were washed twice with PBS. Cells were then incubated an additional 15 minutes at 37° C. with Human Platelet Free Plasma (PFP) supplemented with 37.5 μg/mL ALEXA-488 human fibrinogen, 20 μg/mL corn trypsin inhibitor, and 10 mM calcium. This protocol is depicted in FIG. 1A. After 15 minutes, the cells were fixed with 4% paraformaldehyde (PFA) and stained with 0.5 nM SYT083 (a fluorescent nucleic acid stain) in 10 mM Tris, 1 mM EDTA buffer for 45 minutes. Coverslips were mounted onto coverglass using FLUOROMOUNT-G (a mounting agent) and imaged.

endothelial cells [4] = experiment: TNFα in hemodynamic environment: inflammatory gene expression; type: cell-based; details: 0.1-1 ng/ml TNFα, atheroprone hemodynamic forces; not seen at same levels in static
Procedure: Following 24 hours of shear stress preconditioning with atheroprotective or atheroprone hemodynamic forces, TNFα was added to upper volume (containing the endothelial cells) at a concentration of 0.05-1 ng/ml (see FIG. 5). This concentration of TNFα is similar to plasma concentrations of TNFα observed in patients with cardiovascular disease. Shear stress application was continued for an additional 24 hours in the presence of TNFα.

[5] = tested on: Tissue Factor Pathway Inhibitor (TFPI); experiment: Expression of genes relevant to thrombosis in co-cultures under hemodynamic flow; type: cell-based, human; details: TNFα stimulation; both endothelial and smooth muscle cells
Source text: FIG. 2B depicts a heat map of relative gene expression in endothelial and smooth muscle cells (grown under atheroprone or atheroprotective conditions; see FIG. 2A) of several genes relevant to thrombosis. The relative changes in gene expression of Tissue Factor (F3) and Thrombomodulin (THBD) are presented below the heat map. Atheroprone hemodynamics up-regulate Tissue Factor (F3) compared to atheroprotective shear stress. […] In addition, TNFα stimulation reduces Tissue Factor Pathway Inhibitor (TFPI) in both endothelial and smooth muscle cells.

[6] = tested on: Endothelial/smooth muscle cell co-cultures; experiment: Coculture thrombosis assay with shear stress, Protocol A (fibrin deposition); type: cell-based, human
Procedure: as §2
Following 24 hours of shear stress application (atheroprone or atheroprotective), the media was supplemented with TNFα at a concentration of 0.05 ng/mL or 0.10 ng/mL and shear stress was continued for an additional 24 hours, as shown in FIG. 3A. Media was then removed from both the upper and lower chambers, and both the endothelial cells and smooth muscle cells are washed twice with PBS. Endothelial cells were then incubated for 15 minutes at 37° C. with PFP supplemented with 37.5 μg/mL ALEXA-488 human fibrinogen, 20 μg/mL corn trypsin inhibitor, and 10 mM calcium, and fixed and imaged as described above for monocultures.

[7] = tested on: endothelial cells and smooth muscle cells; experiment: ANG2 in hemodynamic environment: gene array analysis; type: cell-based; details: ANG2 10 nM (10.46 ng/ml) vs DMSO vehicle; healthy and atheroprone
Procedure: ANG2 at a concentration of 10 nM (10.46 ng/ml) or a DMSO vehicle control (VEH) was added to the upper volume and RNA was collected for gene array analysis.

cytochrome p450 1A/1B = experiment: Cytochrome p450 activity assay (P450-GLO) in hepatocytes, induction
Procedure: (§3) Porous membrane segments roughly 2 cm^2 in area were excised and transferred to standard 24-well plates alongside corresponding static cultures. The cells were incubated with 500 μl of hepatocyte media containing substrates from commercially available P450-GLO kits (kits for luminescent cytochrome p450 assays) at the manufacturer-recommended concentrations. After 4 hours, the media was transferred to 96-well plates and assayed for luminescent metabolites to reflect cytochrome p450 activity as per the manufacturer protocol.
(§4) After 48 hours, on day 7, segments of the porous membrane from the devices containing hepatocytes cultured under controlled hemodynamics that were roughly 2.0 cm^2 in area were excised and transferred to standard 24-well plates and treated with substrates for the Cyp p450 enzymes in parallel to corresponding static cultures treated with the different agents. Cytochrome p450 assays were done on day 7 using commercially available P450-GLO kits. After 4 hours the media was transferred to 96-well plates and assayed for luminescent metabolites to reflect cytochrome p450 activity.

[8] = tested on: endothelial cell/smooth muscle cell co-cultures; experiment: HDL in hemodynamic environment; type: cell-based; details: HDL 45 μg/ml or 90 μg/ml, hemodynamic shear stress
Procedure: An additional component of plasma cholesterol distinct from nLDL or oxLDL is HDL. […] HDL was then added to the upper volume at a concentration of 45-1,000 μg/ml. This broad range reflects the broad range of HDL concentrations that can exist within human patients. HDL concentrations in individuals at risk for vascular disease are generally less than about 300 μg/ml, while HDL concentrations in healthy individuals range from greater than about 300 μg/ml up to about 2,000 μg/ml in healthy exercising patients.
In additional experiments, endothelial cell/smooth muscle cell co-cultures plated as described above were preconditioned for 16 hours with hemodynamic shear stress. From hours 16-24 the cells were additionally primed with 0.05 ng/ml TNFα and 50 μg/ml of oxLDL (compared to a vehicle control containing 50 μg/ml nLDL) in the upper volume. At 24 hours, 45 μg/ml or 90 μg/ml HDL was added to the media in the upper volume and hemodynamic shear stress was continued for the next 24 hours (hours 24-48).

[9] = tested on: endothelial cells and smooth muscle cells; experiment: Aldosterone in hemodynamic environment: gene array analysis; type: cell-based; details: aldosterone 1 mM vs vehicle; healthy and atheroprone
Procedure: Aldosterone at a concentration of 1 mM or a vehicle control (VEH) was added to the upper volume and RNA was collected for gene array analysis.

cytochrome p450 3A = experiment: Cytochrome p450 activity assay (P450-GLO) in hepatocytes, induction; type: cell-based, rat; details: controlled hemodynamics 0.6 dynes/cm^2, dexamethasone 02.5 μM, 48 hours, day 7; DMSO 11.64
Procedure: as §3, §4

primary rat hepatocytes = experiment: Toxicity to hepatocytes cultured under controlled flow; details: 50 μM dexamethasone
Procedure: Cytochrome p450 assays were done on day 7 using commercially available P450-GLO kits. After 4 hours the media was transferred to 96-well plates and assayed for luminescent metabolites to reflect cytochrome p450 activity.

[10] = atheroprone hemodynamic environment

Compound: oxidized low-density lipoprotein [oxLDL]
- atheroprotective signaling (eNOS and KLF2) gene expression ([1]; atheroprone conditions): reduced atheroprotective signaling
- HO-1 and ATF3 gene expression ([1]; atheroprone conditions compared to traditional static, oxLDL 10-50 μg/ml vs nLDL): activates these genes at much higher levels
- inflammatory genes IL8 and E-Selectin (SELE) expression ([1]; atheroprone conditions, not regulated in static cultures): activate
- VCAM-1 protein expression [1, 10]: elevated
- phosphorylation of eNOS [1, 10]: reduced phosphorylation
- secreted cytokines IL6, IL8 and MCP-1 [1, 10]: increased levels
- number of genes regulated as compared to nLDL ([1]; endothelial cells, 5 donors): 688 genes
- number of genes regulated as compared to nLDL ([1]; smooth muscle cells, 4 donors): 304 genes
- eNOS gene expression (NOS3) (endothelial cells [2]; 50 μg/ml oxLDL): reduced
- E-Selectin (SELE) gene expression (endothelial cells [2]; 50 μg/ml oxLDL vs nLDL control): higher levels
- NFκB activity (luciferase reporter) (NFκB; endothelial cells, atheroprone hemodynamics): further heightened
- NFκB signaling (luciferase reporter) (NFκB; smooth muscle cells, oxLDL added to upper volume only): elevated NFKB signaling

Compound: tumor necrosis factor-α [TNFα]
- fibrin deposition, mean fluorescence intensity (endothelial cells [3]; 1 ng/ml TNFα): 1.17e5
- fibrin deposition, mean fluorescence intensity (endothelial cells [3]; 10 ng/ml TNFα): 2.69e7
- fibrin deposition, mean fluorescence intensity (endothelial cells [3]; 20 ng/ml TNFα): 3.61e7
- TNFα concentration needed for activation relative to physiological levels (endothelial cells [3]): approximately 200 fold
- inflammatory response (E-Selectin, ICAM, VCAM, IL8 expression) (endothelial cells [4]): induced an inflammatory response
- Tissue Factor Pathway Inhibitor (TFPI) expression [5]: reduces
- fibrin deposition, mean fluorescence intensity ([6]; 0.05 ng/ml TNFα, 24 hours, atheroprone hemodynamics from internal carotid sinus, Protocol A): 1.9e7
- fold lower levels of TNFα inducing fibrin deposition as compared to static cultures ([6]; atheroprone hemodynamic priming): 100- to 200 fold

Compound: Angiotensin II (DRVYIHPF; Angiotensin-2; UniProt P01019 25-32, looked up) [ANG2]
- inflammatory genes (gene array) [7]: upregulated

Compound: Cc1ccc2cc3c(ccc4ccccc43)c3c2c1CC3 [3-MC, 3-Methyl Cholanthrene]
- fold lower levels giving induction responses under controlled hemodynamics (cytochrome p450 1A/1B; compared to static (1 μM static, 0.1 μM controlled hemodynamics)): 10 fold
- 1A/1B response to inducer (cytochrome p450 activity normalized to ATP) (cytochrome p450 1A/1B; controlled hemodynamics 0.6 dynes/cm^2, 3-MC 0.1 μM, 48 hours, day 7, DMSO 4.87): 133.06

Compound: high-density lipoprotein [HDL]
- activation of pro-inflammatory genes and proteins [8]: blocking activation
- atheroprotective genes [8]: activates

Compound: C[C@]12CCC(=O)C=C1CC[C@@H]1[C@@H]2[C@@H](O)C[C@]2(C=O)[C@@H](C(=O)CO)CC[C@@H]12 [aldosterone, Aldosterone]
- inflammatory genes (gene array) [9]: upregulated

Compound: C[C@@H]1C[C@H]2[C@@H]3CCC4=CC(=O)C=C[C@]4(C)[C@@]3(F)[C@@H](O)C[C@]2(C)[C@@]1(O)C(=O)CO [Dexamethasone, dexamethasone]
- 3A response to inducer (cytochrome p450 activity normalized to ATP) (cytochrome p450 3A): 57.53
- toxicity (primary rat hepatocytes): toxic
